{
  "source": "paper PMC12250302",
  "about": "“Synthesis, Antimicrobial Activities, and Model of Action of Novel Tetralone Derivatives Containing Aminoguanidinium Moiety” (International Journal of Molecular Sciences, 2025)",
  "key": {"MRSA-2 [1]": {"system": "MRSA-2", "assay": "Fluorescence microscopy assay (DAPI/PI)", "assay_type": "cell-based, Staphylococcus aureus", "details": "vancomycin 4 µg/mL; 2D 4 and 8 μg/mL; 2 h", "method": "MRSA-2 was cultivated to the logarithmic growth phase, then washed with PBS and resuspended in PBS until the concentration of bacterial suspension reached 1 × 10^8 CFU/mL. […] Thereafter, the samples were incubated with DAPI (10 μM) and PI (10 μM) in the dark for 15 min. The bacterial cells were then subjected to observation under a fluorescence microscope. DMSO served as the negative controls."}, "S. aureus (ATCC 29213)": {"system": "S. aureus (ATCC 29213)", "assay": "Growth curve (OD600)", "assay_type": "cell-based, Staphylococcus aureus", "details": "2D 0.5, 1, 2, 4, 8 µg/mL, vancomycin 0.5 and 1 μg/mL", "method": "(§1) The growth inhibition and time-dependent killing abilities of 2D were evaluated against S. aureus (ATCC 29213) and MRSA-2. After culturing the strains in MH broth until the logarithmic growth phase, they were diluted with MH broth to 1 × 10^6 CFU/mL. […] OD600 values were measured at predetermined time intervals (0, 1, 2, 4, 6, 8, 10, 12, and 24 h)."}, "MRSA-2 [2]": {"system": "MRSA-2", "assay": "Growth curve (OD600)", "assay_type": "cell-based, Staphylococcus aureus", "details": "2D 0.5, 1, 2, 4, 8 µg/mL, vancomycin 0.5 and 1 μg/mL", "method": "as §1"}, "S. aureus ATCC 29213": {"system": "S. aureus ATCC 29213", "assay": "MIC and MBC testing, broth microdilution", "assay_type": "cell-based, Staphylococcus aureus", "details": "Staphylococcus aureus", "in_short": "(§2)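 Twofold serial dilutions of compound in DMSO were prepared in MH broth and mixed with log-phase bacteria, which had been diluted to 1 × 10^6 CFU/mL before mixing. Plates were incubated 18 h at 37 °C. MIC was the lowest concentration without visible growth, in triplicate.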"}, "MRSA-2 biofilm [3]": {"system": "MRSA-2 biofilm", "assay": "Biofilm formation inhibition assay (crystal violet)", "assay_type": "cell-based, Staphylococcus aureus", "details": "Staphylococcus aureus, MRSA, 24 h, read-out: inhibition rate of biofilm formation", "method": "The effect of 2D on the biofilm formation of MRSA was evaluated. MRSA-2 was cultured in MH broth for a period of 3–5 h, after which it was diluted to a density of 1 × 10^6 CFU/mL with MH broth. […] After the removal of the suspended bacteria, the well plates were washed thrice with PBS. Then, 150 μL of methanol was added and fixed for 30 min. Subsequent to air-drying, 150 μL of a 0.1% crystal violet aqueous solution was added. Following a 15 min staining period, the excess crystal violet was removed by rinsing with flowing water. Finally, 150 μL of anhydrous ethanol was added and the mixture was incubated for 20 min. The optical density at 575 nm was detected."}, "[4]": {"system": "clinical S. aureus isolate LMY45", "assay": "MIC and MBC testing, broth microdilution", "assay_type": "cell-based, Staphylococcus aureus", "details": "Staphylococcus aureus", "in_short": "(§3)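 Triplicate broth microdilution: MH broth, serial 2× dilution of compounds dissolved in DMSO, 1 × 10^6 CFU/mL bacteria grown to log phase, 18 h at 37 °C, followed by MBC determination.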"}, "[5]": {"system": "clinical S. aureus isolate LMY46", "assay": "MIC and MBC testing, broth microdilution", "assay_type": "cell-based, Staphylococcus aureus", "details": "Staphylococcus aureus", "in_short": "as §3"}, "[6]": {"system": "clinical S. aureus isolate LMY47", "assay": "MIC and MBC testing, broth microdilution", "assay_type": "cell-based, Staphylococcus aureus", "details": "Staphylococcus aureus", "in_short": "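Broth microdilution in MH broth; two-fold serial dilutions of DMSO-dissolved compound; inoculum 1 × 10^6 CFU/mL from log-phase culture; 37 °C, 18 h; triplicates; MBC also read.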"}, "MRSA-1": {"system": "MRSA-1", "assay": "MIC and MBC testing, broth microdilution", "assay_type": "cell-based, Staphylococcus aureus", "details": "Staphylococcus aureus, MRSA", "in_short": "as §3"}, "[7]": {"system": "clinical S. aureus isolate LMY48", "assay": "MIC and MBC testing, broth microdilution", "assay_type": "cell-based, Staphylococcus aureus", "details": "Staphylococcus aureus", "in_short": "as §3"}, "MRSA-2 [8]": {"system": "MRSA-2", "assay": "MIC and MBC testing, broth microdilution", "assay_type": "cell-based, Staphylococcus aureus", "details": "Staphylococcus aureus, MRSA", "in_short": "as §3"}, "MRSA-2 biofilm [9]": {"system": "MRSA-2 biofilm", "assay": "Biofilm elimination assay (crystal violet)", "assay_type": "cell-based, Staphylococcus aureus", "details": "at the test concentration", "method": "The ability of 2D to eliminate biofilm was evaluated. MRSA-2 (1 × 10^6 CFU/mL) was incubated in 96-well plates for 24 h until biofilm formation. The planktonic bacteria were discarded and washed thrice with PBS. […] According to the above method, the OD575 nm value was detected after the following steps: PBS washing, methanol fixation, crystal violet staining, and ethanol incubation."}, "E. faecium ATCC 35667": {"system": "E. faecium ATCC 35667", "assay": "MIC and MBC testing, broth microdilution", "assay_type": "cell-based, Enterococcus faecium", "details": "Enterococcus faecium", "in_short": "as §2"}, "MRSA-2 [10]": {"system": "MRSA-2", "assay": "MRSA-induced mouse skin abscess model", "assay_type": "in vivo", "description": "The MRSA-induced mouse skin abscess model was used to assess the in vivo antibacterial effects of 2D. Female KM mice, aged 4–6 weeks and weighing 20 ± 2 g, were purchased from the Laboratory Animal Center, Lanzhou Institute of Veterinary Medicine, Chinese Academy of Agricultural Sciences. The animal experiments were approved by the Ethics Committee of Research Involving Animals of the Lanzhou Institute of Husbandry and Pharmaceutical Science of CAAS (Approval number: 2025-03) and performed in accordance with the guidelines of the Ethics Committee for Animal Experiments. Prior to the formal experiment, all mice were acclimated for 5 days. The mice were kept in a pathogen-free environment with a 12 h light/12 h dark cycle, 50% ± 10% humidity, and a temperature of 24 °C ± 2 °C. […] The depilation method employed was as follows: depilatory paste was applied to the designated area for 10 min, after which it was thoroughly washed with 0.9% saline. The mice were semi-anesthetized by intraperitoneal injection with sodium Ulatan (TCI, 20%, 100 μL). […] After a 24 h interval, the administration was repeated, and 24 h after the last administration, the volume of abscess was measured and calculated. Then, the skin of the infected site and main organs were collected for tissue bacterial load and pathological detection."}},
  "data": [
    {"smiles": "CN[C@H](CC(C)C)C(=O)N[C@H]1C(=O)N[C@@H](CC(N)=O)C(=O)N[C@H]2C(=O)N[C@H]3C(=O)N[C@H](C(=O)N[C@H](C(=O)O)c4cc(O)cc(O)c4-c4cc3ccc4O)[C@H](O)c3ccc(c(Cl)c3)Oc3cc2cc(c3O[C@@H]2O[C@H](CO)[C@@H](O)[C@H](O)[C@H]2O[C@H]2C[C@](C)(N)[C@H](O)[C@H](C)O2)Oc2ccc(cc2Cl)[C@H]1O", "note": "[Vancomycin, reference compound]", "values": [
      {"measurement": "PI red fluorescence (damaged membranes)", "setting": "MRSA-2 [1]", "value": "a very small amount of red fluorescence"},
      {"measurement": "growth inhibition (growth curve)", "setting": "S. aureus (ATCC 29213)", "value": "failed to completely inhibit the growth"},
      {"measurement": "growth inhibition (growth curve)", "setting": "MRSA-2 [2]", "value": "failed to completely inhibit the growth"},
      {"measurement": "MBC", "setting": "S. aureus ATCC 29213; ATCC29213", "value": 4, "unit": "µg/mL"},
      {"measurement": "MIC", "setting": "S. aureus ATCC 29213; ATCC29213, 18 h", "value": 1, "unit": "µg/mL"},
      {"measurement": "inhibition at 0.25 µg/mL", "setting": "MRSA-2 biofilm [3]", "value": "~18.5", "unit": "%"},
      {"measurement": "inhibition at 0.5 µg/mL", "setting": "MRSA-2 biofilm [3]", "value": "~37.8", "unit": "%"},
      {"measurement": "MBC", "setting": "[4]", "value": 2, "unit": "µg/mL"},
      {"measurement": "MIC", "setting": "[4]; 18 h", "value": 0.5, "unit": "µg/mL"},
      {"measurement": "MBC", "setting": "[5]", "value": 8, "unit": "µg/mL"},
      {"measurement": "MIC", "setting": "[5]; 18 h", "value": 1, "unit": "µg/mL"},
      {"measurement": "MBC", "setting": "[6]", "value": 2, "unit": "µg/mL"},
      {"measurement": "MIC", "setting": "[6]; 18 h", "value": 1, "unit": "µg/mL"},
      {"measurement": "MBC", "setting": "MRSA-1", "value": 4, "unit": "µg/mL"},
      {"measurement": "MIC", "setting": "MRSA-1; 18 h", "value": 1, "unit": "µg/mL"},
      {"measurement": "MBC", "setting": "[7]", "value": 2, "unit": "µg/mL"},
      {"measurement": "MIC", "setting": "[7]; 18 h", "value": 1, "unit": "µg/mL"},
      {"measurement": "MBC", "setting": "MRSA-2 [8]", "value": 2, "unit": "µg/mL"},
      {"measurement": "MIC", "setting": "MRSA-2 [8]; 18 h", "value": 1, "unit": "µg/mL"},
      {"measurement": "biofilm elimination", "setting": "MRSA-2 biofilm [9]", "value": "unable to completely eliminate the biofilm"},
      {"measurement": "MBC", "setting": "E. faecium ATCC 35667; ATCC35667", "value": 16, "unit": "µg/mL"},
      {"measurement": "MIC", "setting": "E. faecium ATCC 35667; ATCC35667, 18 h", "value": 2, "unit": "µg/mL"},
      {"measurement": "purulent lesions at the infection site (skin histopathology)", "setting": "MRSA-2 [10]; 5 mg/kg", "value": "significantly smaller"},
      {"measurement": "volume of skin abscess", "setting": "MRSA-2 [10]; 5 mg/kg, injected 2 h and 24 h postinfection, compared to model and solvent group", "value": "reduced volume"},
      {"measurement": "bacterial load of the skin at the infected site", "setting": "MRSA-2 [10]; 2D 5 and 10 mg/kg, vancomycin 5 mg/kg, compared with model and solvent group", "value": "significantly reduced"},
      {"measurement": "histopathology of the major organs", "setting": "MRSA-2 [10]; infected mice after treatment, H&E", "value": "no discernible lesions"}
    ]}
  ]
}
